Among the test systems are SK-MEL-2; HCT-15; SK-MEL-28; SW-620; TK-10; SK-OV-3; IGROV-1; HL-60; OVCAR-8; SN12C; OVCAR-5; SR; NCI-H23; MOLT-4; Malme-3M; U-251; A498; SF-539; SNB-19; NCI-H226.
What all share (test): inhibition of tumour cell growth, NCI panel, 48 h

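These data come from cells grown in 96-well plates and exposed to compound for 48 hours at five concentrations. The concentration for 50% growth inhibition is given as GI50.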 Calls of active or inactive are those of the source. No stated cut-off is given here; in the data, active = GI50 up to about 1.1 µM and inactive = higher.

For the molecule `O=C(NNC(=S)NCc1ccccc1)C12CC3CC(CC(C3)C1)C2`, the GI50 with SK-MEL-2 was 99.1 µM (inactive); in the assay on HCT-15 it was 53.3 µM; in the assay with SK-MEL-28, 67.6 µM (inactive); in the assay with SW-620 it was 48 µM (inactive); with TK-10, > 100 µM (inactive); in the assay with SK-OV-3, > 100 µM (inactive). For the same molecule, the GI50 in the assay with IGROV-1 was > 100 µM (inactive); in the assay on HL-60 it was 22.4 µM (inactive); in the assay with OVCAR-8 it was > 100 µM (inactive); in the assay on SN12C, > 100 µM (inactive); with OVCAR-5 it was > 100 µM (inactive); with SR, 9.33 µM (inactive). Besides, the GI50 is 74.6 µM (inactive) in the assay with NCI-H23; 19.1 µM (inactive) in the assay on MOLT-4; > 100 µM (inactive) in the assay on Malme-3M; 49.8 µM (inactive) with U-251; > 100 µM (inactive) in the assay on A498; > 100 µM (inactive) in the assay on SF-539. Moreover, the GI50 in the assay with SNB-19 and in the assay on NCI-H226 was > 100 µM (inactive) each time.

Values taken from ChEMBL document CHEMBL1201862, “PubChem BioAssay data set” (2004).
